Test [1] has as its target cGMP-specific 3',5'-cyclic phosphodiesterase (Homo sapiens, UniProt O76074). Nature of the test: Phosphodiesterase PDE5 Eurofins Panlabs panel. Conditions: Compound concentration 10.0 uM; call rule not given here.
In test [2] the target is Estrogen receptor (Homo sapiens) (UniProt P03372). Description: Estrogen Eralpha Eurofins Panlabs panel. To be noted: Compound concentration 10.0 uM.
Test [3] has as its target Glutamate receptor ionotropic, AMPA (Rattus norvegicus) (UniProt P19491+P19492+P19493+P19490). Nature of the test: Glutamate, AMPA Eurofins Panlabs panel. The format is protein-complex assay. Conditions: Compound concentration 10.0 uM.
Test [4] has as its target Type-2 angiotensin II receptor (Homo sapiens) (UniProt P50052). Description: Angiotensin AT2 Eurofins Panlabs panel. Conditions: Compound concentration 10.0 uM.
In test [5] the target is cGMP-dependent 3',5'-cyclic phosphodiesterase (Homo sapiens, UniProt O00408). Nature of the test: 3H-cAMP and 3H-cGMP Scintillation Proximity Assay (PDE2A). In general terms: SPA uses beads or plates that emit light when radiolabelled molecules are held near them.
The target in test [6] is T1, Muscarinic acetylcholine receptor M2 (Homo sapiens) (UniProt P08172).
T1 sequence (whole entry): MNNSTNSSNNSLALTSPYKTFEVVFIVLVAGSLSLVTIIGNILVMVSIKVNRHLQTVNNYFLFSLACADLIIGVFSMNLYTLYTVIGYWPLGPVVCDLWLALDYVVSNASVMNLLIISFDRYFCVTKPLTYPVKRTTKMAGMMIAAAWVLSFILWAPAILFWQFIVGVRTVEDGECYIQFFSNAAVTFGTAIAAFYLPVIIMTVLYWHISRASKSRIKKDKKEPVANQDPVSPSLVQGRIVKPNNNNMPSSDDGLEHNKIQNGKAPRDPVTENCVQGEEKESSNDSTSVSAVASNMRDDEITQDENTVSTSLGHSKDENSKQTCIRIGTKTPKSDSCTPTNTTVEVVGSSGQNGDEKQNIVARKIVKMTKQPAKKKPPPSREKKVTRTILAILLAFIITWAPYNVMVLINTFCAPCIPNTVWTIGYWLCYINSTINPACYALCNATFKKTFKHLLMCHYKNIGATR
Description: Muscarinic M2 Eurofins Panlabs panel. Conditions: Compound concentration 10.0 uM.

Test [7] addresses Growth hormone secretagogue receptor type 1 (Homo sapiens) (UniProt Q92847). Nature of the test: Growth Hormone Secretagogue (GHS, Ghrelin) Eurofins Panlabs panel. Conditions: Compound concentration 10.0 uM.
Test [8] concerns the target Prostaglandin E2 receptor EP3 subtype (Homo sapiens) (UniProt P43115). Description: Prostanoid EP3 Eurofins Panlabs panel. Conditions: concentration not given here.
For test [9], the target named is 3',5'-cyclic-AMP phosphodiesterase 7B (Homo sapiens, UniProt Q9NP56). Description: 3H-cAMP and 3H-cGMP Scintillation Proximity Assay (PDE7B).
For test [10], the target named is Leukotriene C4 synthase (Cavia porcellus) (UniProt A6XA80). Description: Leukotriene LTC4 Synthase Eurofins Panlabs panel. To be noted: Compound concentration 10.0 uM.
Test [11] deals with T2, cGMP-inhibited 3',5'-cyclic phosphodiesterase 3B (Homo sapiens, UniProt Q13370). Nature of the test: 3H-cAMP and 3H-cGMP Scintillation Proximity Assay (PDE3B).
Target sequence in this assay (Q13370 whole entry): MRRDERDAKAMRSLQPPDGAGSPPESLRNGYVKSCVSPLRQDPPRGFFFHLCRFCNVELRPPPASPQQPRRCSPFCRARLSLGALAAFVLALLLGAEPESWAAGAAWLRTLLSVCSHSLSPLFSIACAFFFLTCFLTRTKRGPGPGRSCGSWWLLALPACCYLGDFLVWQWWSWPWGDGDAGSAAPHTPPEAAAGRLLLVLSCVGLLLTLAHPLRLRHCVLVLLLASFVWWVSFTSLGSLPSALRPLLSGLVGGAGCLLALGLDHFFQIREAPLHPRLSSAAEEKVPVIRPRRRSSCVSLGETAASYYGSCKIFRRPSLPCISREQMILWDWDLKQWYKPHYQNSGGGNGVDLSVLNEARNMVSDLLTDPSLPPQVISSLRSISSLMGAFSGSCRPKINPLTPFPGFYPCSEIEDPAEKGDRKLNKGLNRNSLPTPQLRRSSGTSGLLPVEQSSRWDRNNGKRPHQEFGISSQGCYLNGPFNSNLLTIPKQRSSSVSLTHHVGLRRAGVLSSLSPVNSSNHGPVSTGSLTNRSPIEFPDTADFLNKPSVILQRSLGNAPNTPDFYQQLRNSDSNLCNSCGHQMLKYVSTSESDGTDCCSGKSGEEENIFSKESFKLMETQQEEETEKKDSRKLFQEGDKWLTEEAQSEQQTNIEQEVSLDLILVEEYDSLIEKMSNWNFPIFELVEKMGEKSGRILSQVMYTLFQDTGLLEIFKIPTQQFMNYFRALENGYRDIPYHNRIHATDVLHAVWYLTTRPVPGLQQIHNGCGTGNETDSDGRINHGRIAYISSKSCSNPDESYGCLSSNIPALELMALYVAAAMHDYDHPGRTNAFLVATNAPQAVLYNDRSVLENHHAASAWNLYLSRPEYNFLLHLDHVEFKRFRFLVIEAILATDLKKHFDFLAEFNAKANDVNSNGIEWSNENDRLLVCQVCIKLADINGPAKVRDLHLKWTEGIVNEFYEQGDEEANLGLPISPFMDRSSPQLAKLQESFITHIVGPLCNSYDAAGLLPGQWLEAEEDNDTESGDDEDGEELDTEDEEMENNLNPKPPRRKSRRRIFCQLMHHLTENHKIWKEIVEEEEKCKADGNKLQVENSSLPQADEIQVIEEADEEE
The next test is filed under the species Rattus norvegicus. Description: Imidazoline I2, Central Eurofins Panlabs panel. Conditions: Compound concentration 10.0 uM.
The target of test [12] is Histamine H1 receptor (Homo sapiens) (UniProt P35367). Nature of the test: Histamine H1 Eurofins Panlabs panel. To be noted: Compound concentration 10.0 uM.
Test [13] deals with Purinergic P2Y (Rattus norvegicus) (UniProt O35811+Q9EPX4+P49651+Q63371+P41232+O35881+Q6GUG4). Description: Purinergic P2Y Eurofins Panlabs panel. The format is protein assay. Conditions: Compound concentration 10.0 uM.
For test [14], the target named is Polyunsaturated fatty acid lipoxygenase ALOX15 (Homo sapiens) (UniProt P16050). Nature of the test: Lipoxygenase 15-LO Eurofins Panlabs panel. To be noted: Compound concentration 10.0 uM.
The target in test [15] is Endothelin-1 receptor (Homo sapiens) (UniProt P25101). Nature of the test: Endothelin ETA Eurofins Panlabs panel. Conditions: Compound concentration 10.0 uM.
In test [16] the target is Insulin receptor (Rattus norvegicus) (UniProt P15127). Nature of the test: Insulin Eurofins Panlabs panel. To be noted: Compound concentration 10.0 uM.
Test [17] addresses T3, 5-hydroxytryptamine receptor 2C (Homo sapiens) (UniProt P28335).
T3 sequence (whole entry): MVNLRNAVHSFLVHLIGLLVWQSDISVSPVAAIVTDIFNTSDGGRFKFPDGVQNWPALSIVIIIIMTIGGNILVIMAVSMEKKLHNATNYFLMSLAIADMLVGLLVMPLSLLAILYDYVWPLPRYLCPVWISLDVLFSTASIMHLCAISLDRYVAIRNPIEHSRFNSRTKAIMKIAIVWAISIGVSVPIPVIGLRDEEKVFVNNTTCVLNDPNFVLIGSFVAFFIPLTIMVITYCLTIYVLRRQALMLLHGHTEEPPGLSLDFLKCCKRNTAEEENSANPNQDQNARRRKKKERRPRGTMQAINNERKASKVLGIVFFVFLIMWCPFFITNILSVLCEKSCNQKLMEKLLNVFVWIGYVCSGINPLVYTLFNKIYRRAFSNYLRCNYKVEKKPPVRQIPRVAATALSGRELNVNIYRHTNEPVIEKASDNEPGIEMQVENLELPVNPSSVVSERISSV
Nature of the test: Serotonin (5-Hydroxytryptamine) 5-HT2C Eurofins Panlabs panel. To be noted: Compound concentration 10.0 uM.

The target of test [18] is Sodium/potassium-transporting ATPase (Sus scrofa) (UniProt P05027+P05024+D2WKD8+D2WKD7+F1ST41). Nature of the test: ATPase, Na+/K+, Heart, Pig Eurofins Panlabs panel. The format is protein-complex assay. To be noted: Compound concentration 10.0 uM.
The target of test [19] is T4, Alpha-2B adrenergic receptor (Homo sapiens) (UniProt P18089).
T4 sequence (whole entry): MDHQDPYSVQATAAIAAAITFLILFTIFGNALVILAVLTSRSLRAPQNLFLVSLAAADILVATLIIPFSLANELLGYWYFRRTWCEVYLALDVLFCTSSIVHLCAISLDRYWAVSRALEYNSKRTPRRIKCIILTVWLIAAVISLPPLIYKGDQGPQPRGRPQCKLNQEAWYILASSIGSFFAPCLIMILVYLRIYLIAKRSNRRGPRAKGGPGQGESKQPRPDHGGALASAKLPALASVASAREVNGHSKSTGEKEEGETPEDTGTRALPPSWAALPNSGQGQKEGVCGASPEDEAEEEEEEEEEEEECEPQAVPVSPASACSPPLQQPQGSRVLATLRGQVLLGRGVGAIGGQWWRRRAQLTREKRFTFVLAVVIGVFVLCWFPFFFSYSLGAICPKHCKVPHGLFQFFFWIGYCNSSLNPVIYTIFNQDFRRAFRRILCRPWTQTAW
Nature of the test: Adrenergic alpha2B Eurofins Panlabs panel. To be noted: Compound concentration 10.0 uM.

For test [20], the target named is Aldo-keto reductase family 1 member B1 (Rattus norvegicus) (UniProt P07943). Description: Aldose Reductase Eurofins Panlabs panel. To be noted: Compound concentration 10.0 uM.
The target of a further test is Phosphodiesterase PDE1 (Bos taurus, UniProt Q01061+P14100+A0A3Q1MCV4). Nature of the test: 3H-cAMP and 3H-cGMP Scintillation Proximity Assay (PDE1). The format is tissue-based, brain.
Test [21] deals with Kappa-type opioid receptor (Homo sapiens) (UniProt P41145). Nature of the test: Opiate kappa(OP2, KOP) Eurofins Panlabs panel. Conditions: Compound concentration 10.0 uM.
The target in test [22] is 3',5'-cyclic-AMP phosphodiesterase 4B (Homo sapiens, UniProt Q07343). Description: Panlabs assay PDE4B1. The arrangement: compound concentration 10 uM. Conditions: at 10 µM.
Test [23] addresses T2, cGMP-inhibited 3',5'-cyclic phosphodiesterase 3B. Nature of the test: Panlabs assay PDE3B. The arrangement: compound concentration 10 uM. To be noted: at 10 µM.
Target sequence in this assay (Q13370 whole entry, looked up): as the sequence (Q13370 whole entry) above
In another test the target is Mu-type opioid receptor (Homo sapiens, UniProt P35372). Nature of the test: GPCRScan assay: inhibition of MOR. The arrangement: radioligand conc. used [nm] 1.0 – 2.0, parental cells stable HEK.
The target in test [24] is cAMP and cAMP-inhibited cGMP 3',5'-cyclic phosphodiesterase 10A (Homo sapiens, UniProt Q9Y233). Description: Panlabs assay PDE10A2. The arrangement: compound concentration 10 uM. Conditions: at 10 µM.

The inhibition is the change of the read-out against control, counted positive when it falls. For orientation: IC50 means the concentration that gives 50% inhibition.

Sequence of Mu-type opioid receptor (P35372 whole entry): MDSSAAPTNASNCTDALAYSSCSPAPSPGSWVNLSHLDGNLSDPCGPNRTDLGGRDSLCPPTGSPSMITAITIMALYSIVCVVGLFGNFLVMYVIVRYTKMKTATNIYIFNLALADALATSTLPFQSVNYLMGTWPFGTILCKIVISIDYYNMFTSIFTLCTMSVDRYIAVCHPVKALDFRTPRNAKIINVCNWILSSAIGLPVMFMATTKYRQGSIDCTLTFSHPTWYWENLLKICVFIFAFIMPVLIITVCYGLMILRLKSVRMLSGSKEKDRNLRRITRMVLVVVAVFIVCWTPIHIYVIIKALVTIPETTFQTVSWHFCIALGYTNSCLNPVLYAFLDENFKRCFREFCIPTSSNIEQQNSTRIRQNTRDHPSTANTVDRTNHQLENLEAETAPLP
Sequence of cAMP and cAMP-inhibited cGMP 3',5'-cyclic phosphodiesterase 10A (Q9Y233 whole entry): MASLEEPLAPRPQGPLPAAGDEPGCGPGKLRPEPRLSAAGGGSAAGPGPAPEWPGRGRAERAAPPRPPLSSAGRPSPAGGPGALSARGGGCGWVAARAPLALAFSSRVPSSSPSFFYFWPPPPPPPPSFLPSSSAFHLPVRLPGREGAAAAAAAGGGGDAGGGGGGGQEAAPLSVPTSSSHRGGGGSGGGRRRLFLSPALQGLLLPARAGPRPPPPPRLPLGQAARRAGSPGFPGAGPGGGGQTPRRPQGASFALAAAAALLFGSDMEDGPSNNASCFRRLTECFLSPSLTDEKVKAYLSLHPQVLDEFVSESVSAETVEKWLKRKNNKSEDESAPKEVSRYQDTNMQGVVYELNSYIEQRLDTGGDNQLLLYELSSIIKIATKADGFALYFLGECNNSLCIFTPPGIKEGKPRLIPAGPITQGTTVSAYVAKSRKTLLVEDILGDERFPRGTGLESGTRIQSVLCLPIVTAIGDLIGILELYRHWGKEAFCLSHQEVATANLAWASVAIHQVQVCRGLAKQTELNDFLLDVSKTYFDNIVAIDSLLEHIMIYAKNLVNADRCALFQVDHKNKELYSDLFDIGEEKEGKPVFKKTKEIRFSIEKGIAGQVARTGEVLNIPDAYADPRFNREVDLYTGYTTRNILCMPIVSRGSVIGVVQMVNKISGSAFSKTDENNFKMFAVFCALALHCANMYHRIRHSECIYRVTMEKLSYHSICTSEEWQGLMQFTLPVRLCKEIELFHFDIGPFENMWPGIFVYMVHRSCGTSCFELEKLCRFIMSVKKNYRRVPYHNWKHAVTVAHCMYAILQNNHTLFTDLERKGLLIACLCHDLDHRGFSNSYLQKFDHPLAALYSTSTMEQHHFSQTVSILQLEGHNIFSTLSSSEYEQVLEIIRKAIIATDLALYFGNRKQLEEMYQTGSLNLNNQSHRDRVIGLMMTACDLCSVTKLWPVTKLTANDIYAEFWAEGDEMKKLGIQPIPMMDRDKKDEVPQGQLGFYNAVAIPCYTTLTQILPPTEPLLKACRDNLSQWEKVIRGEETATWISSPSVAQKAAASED
Sequence of Kappa-type opioid receptor (Homo sapiens) (P41145 whole entry): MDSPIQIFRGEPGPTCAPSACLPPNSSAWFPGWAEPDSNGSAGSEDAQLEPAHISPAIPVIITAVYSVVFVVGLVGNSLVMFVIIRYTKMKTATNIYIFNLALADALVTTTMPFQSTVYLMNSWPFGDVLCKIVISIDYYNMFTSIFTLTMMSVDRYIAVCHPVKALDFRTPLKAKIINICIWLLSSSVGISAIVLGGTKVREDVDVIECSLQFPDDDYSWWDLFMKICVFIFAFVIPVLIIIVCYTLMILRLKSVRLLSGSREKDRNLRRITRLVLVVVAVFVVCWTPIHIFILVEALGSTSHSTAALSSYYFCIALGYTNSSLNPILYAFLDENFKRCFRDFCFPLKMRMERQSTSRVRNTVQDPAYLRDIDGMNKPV
Sequence of 3',5'-cyclic-AMP phosphodiesterase 4B (Q07343 whole entry): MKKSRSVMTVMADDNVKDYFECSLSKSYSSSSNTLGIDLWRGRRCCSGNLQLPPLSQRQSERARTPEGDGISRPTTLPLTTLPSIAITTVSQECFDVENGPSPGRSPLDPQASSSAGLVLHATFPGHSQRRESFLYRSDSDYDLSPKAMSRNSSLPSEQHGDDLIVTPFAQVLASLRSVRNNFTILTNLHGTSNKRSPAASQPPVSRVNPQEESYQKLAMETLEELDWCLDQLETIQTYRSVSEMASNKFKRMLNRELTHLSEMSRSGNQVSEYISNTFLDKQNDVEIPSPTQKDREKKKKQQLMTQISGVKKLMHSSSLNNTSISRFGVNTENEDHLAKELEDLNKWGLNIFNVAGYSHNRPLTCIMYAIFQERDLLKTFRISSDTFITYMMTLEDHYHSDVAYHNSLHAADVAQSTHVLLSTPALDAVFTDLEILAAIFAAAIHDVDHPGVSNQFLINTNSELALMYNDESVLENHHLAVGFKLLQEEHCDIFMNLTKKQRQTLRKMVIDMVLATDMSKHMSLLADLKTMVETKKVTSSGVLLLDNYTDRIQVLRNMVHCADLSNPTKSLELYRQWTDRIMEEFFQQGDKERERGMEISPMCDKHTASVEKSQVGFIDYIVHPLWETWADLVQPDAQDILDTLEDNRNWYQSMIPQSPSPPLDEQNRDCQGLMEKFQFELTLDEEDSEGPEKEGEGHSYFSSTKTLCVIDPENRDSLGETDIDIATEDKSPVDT
Sequence of Type-2 angiotensin II receptor (Homo sapiens) (P50052 whole entry): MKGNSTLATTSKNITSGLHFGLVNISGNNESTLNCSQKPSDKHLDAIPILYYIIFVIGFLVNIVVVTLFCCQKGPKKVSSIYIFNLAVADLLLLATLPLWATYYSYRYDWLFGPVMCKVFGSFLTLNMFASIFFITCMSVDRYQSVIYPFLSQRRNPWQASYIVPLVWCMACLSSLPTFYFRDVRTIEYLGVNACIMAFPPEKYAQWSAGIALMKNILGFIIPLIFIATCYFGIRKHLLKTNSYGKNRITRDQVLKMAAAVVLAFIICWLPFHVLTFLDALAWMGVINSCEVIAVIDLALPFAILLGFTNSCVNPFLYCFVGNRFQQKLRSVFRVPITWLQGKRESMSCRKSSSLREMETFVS
Sequence of 3',5'-cyclic-AMP phosphodiesterase 7B (Q9NP56 whole entry): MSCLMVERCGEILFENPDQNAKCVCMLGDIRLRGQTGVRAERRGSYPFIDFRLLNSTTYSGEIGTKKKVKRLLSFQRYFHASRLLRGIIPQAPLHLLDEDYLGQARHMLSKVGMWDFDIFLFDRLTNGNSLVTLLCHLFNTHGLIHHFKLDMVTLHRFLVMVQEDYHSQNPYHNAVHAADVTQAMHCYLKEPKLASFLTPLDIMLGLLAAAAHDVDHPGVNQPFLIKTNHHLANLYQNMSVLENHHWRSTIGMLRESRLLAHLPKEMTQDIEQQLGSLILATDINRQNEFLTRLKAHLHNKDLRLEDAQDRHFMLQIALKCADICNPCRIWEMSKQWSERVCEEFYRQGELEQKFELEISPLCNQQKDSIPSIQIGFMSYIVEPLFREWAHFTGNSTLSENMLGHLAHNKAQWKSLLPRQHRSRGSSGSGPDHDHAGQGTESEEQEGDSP
Sequence of Histamine H1 receptor (Homo sapiens) (P35367 whole entry): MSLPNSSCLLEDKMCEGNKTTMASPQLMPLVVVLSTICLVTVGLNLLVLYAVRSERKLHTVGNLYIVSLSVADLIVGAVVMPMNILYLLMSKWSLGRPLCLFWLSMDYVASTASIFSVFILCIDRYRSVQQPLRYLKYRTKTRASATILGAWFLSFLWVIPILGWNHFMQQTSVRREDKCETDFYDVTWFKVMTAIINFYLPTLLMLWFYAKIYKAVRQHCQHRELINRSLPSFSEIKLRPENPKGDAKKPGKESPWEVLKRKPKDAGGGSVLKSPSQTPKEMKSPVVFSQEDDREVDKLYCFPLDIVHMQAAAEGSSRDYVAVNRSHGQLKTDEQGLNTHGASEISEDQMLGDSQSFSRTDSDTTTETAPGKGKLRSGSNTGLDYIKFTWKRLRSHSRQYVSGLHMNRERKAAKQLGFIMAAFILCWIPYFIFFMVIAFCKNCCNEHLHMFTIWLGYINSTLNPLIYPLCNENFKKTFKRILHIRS

Consider `CCC[C@H]1CNCc2c1[nH]c(=O)c(C#N)c2N1CCC2(CC1)CC2`, for which the inhibition in [1] is 59%; in test [2] it was 8%; in test [3], -2%; in test [4] it was 3%; in [6], 6.67%; in test [7], 9%. Besides, the inhibition was 0% in [8]; 16% in [10]; 32.5% in the test filed under Rattus norvegicus; 5% in test [12]; 5% in test [13]; -6% in test [14]. In addition, the inhibition in test [15] is 3%; in test [16] it was 10%; in test [17] it was 5%; in test [18], -1%; in test [19] it was 7%; in test [20], 4%. Also, the inhibition in [21] was found to be 24.2%. Moreover, the IC50 is > 10 µM (not active) in test [5], > 10 µM (not active) in test [9], > 10 µM (not active) in test [11] and 0.753 µM against Phosphodiesterase PDE1.

As for `CCC[C@@H]1CNCc2c1[nH]c(=O)c(C#N)c2N1CCC2(CC1)CC2`, the inhibition is 10.6% in [22], 0.8% in [23] and 1.6% in test [24]. Besides, the figures for the Ki on Mu-type opioid receptor (read-out: Ki) and at Mu-type opioid receptor (read-out: pKi (converted)) were 4.71 µM and 4.68 µM, respectively.

For the origin of these results see ChEMBL document CHEMBL5303765, “Data for DCP probe BAY-7081” (2023).
